Measured values taken from ChEMBL document CHEMBL1201862, “PubChem BioAssay data set” (2004).
Activity calls are given as the source filed them.

Experiments:
[1] = target: T1, Neuropeptide Y receptor type 1 (Homo sapiens, UniProt P25929); experiment: NPY-Y1 receptor antagonist potency, dose response, cell-based (AID 1277); format: functional
T1 sequence (P25929 whole entry): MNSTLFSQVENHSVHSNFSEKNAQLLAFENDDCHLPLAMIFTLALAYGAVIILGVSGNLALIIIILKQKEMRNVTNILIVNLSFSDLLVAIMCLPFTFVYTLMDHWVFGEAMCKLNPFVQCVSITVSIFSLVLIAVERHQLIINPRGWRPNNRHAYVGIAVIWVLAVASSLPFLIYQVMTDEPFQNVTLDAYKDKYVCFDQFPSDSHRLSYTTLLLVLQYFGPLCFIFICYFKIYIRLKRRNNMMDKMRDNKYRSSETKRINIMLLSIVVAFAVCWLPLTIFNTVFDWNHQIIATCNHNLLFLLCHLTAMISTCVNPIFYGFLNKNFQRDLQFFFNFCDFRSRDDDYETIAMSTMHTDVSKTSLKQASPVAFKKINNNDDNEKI

[2] = target: T2, Neuropeptide Y receptor type 2 (Homo sapiens, UniProt P49146); experiment: NPY-Y2 antagonist potency, selectivity check, dose response, counter-screen for NPY-Y1 antagonist project, cell-based (AID 1278); format: functional
T2 sequence (P49146 whole entry): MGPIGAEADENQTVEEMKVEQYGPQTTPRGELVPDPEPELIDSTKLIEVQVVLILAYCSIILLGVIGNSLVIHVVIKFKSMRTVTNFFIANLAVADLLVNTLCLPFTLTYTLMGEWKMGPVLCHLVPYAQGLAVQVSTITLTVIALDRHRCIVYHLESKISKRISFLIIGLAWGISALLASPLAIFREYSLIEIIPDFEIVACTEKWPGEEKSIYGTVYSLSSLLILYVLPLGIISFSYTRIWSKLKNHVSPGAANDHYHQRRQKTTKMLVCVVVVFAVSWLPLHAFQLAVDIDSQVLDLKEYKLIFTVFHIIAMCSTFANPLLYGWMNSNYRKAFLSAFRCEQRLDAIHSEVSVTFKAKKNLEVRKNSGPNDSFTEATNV

[3] = enhancers of respiration in Yfh1-depleted yeast, dose response, Friedreich's ataxia, plus single-dose screen (AID 1465); format: functional;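 further: yeast depleted of Yfh1p frataxin homolog grown on glycerol needing respiration; WST-1 tetrazolium dye reduction as measure of cellular dehydrogenase metabolic activity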
Genome polyprotein = Genome polyprotein (Hepatitis C virus, UniProt Q2Q167); experiment: HCV core protein dimerization inhibitors, dose response, biochemical, TR-FRET (AID 2159); design: species or system Hepacivirus hominis;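 further: blocks dimerization of HCV core protein measured by TR-FRET between tagged core106 pairs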
[4] = target: E3 ubiquitin-protein ligase Mdm2 (Homo sapiens, UniProt Q00987); experiment: enhancers of MDM2-luciferase reporter signal, concentration-effect titration, project on inhibitors of MDM2 ubiquitin ligase, cellular assay, luminescent readout, 384-well plate format (AID 1394); format: functional;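 further: MDM2 E3 inhibitors raise luminescence so EC50 is for signal enhancement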
[5] = growth suppression of PTEN-null colon cells, dose response, cell-based, HCT116 PTEN knockout (AID 1047); format: functional;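 further: HCT116 colon tumor cells with PTEN knocked out; cells exposed to compound for 60 hours before readout; potency for loss of cell viability measured by luminescence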
[6] = Vero cell cytotoxicity, dose response, cytotoxicity control for Vif-APOBEC3G degradation inhibitor project, Vero cells (AID 1117358); format: functional; conditions: Human immunodeficiency virus 1, Vero
[7] = cytotoxicity in HEK-293T cells, dose response, cytotoxicity control for BCR NF-kB inhibitor project, luminescence, B-cell screen hits (AID 489021); format: functional, cell-based;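 further: HEK-293T cells carrying an NF-kB luciferase reporter; cells exposed to compound for about 14 hours before viability readout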
[8] = target: T3, Hepatocyte nuclear factor 4-alpha (Homo sapiens, UniProt P41235); format: functional, cell-based;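 further: biochemical luminescence-based dose-response counterscreen measuring inhibition of HNF4 dimerization, run alongside a screen for blockers of ABHD5–perilipin-5 interaction; split luciferase complementation of HNF4 fusion proteins in cell lysate measuring dimerization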
T3 sequence (P41235 whole entry): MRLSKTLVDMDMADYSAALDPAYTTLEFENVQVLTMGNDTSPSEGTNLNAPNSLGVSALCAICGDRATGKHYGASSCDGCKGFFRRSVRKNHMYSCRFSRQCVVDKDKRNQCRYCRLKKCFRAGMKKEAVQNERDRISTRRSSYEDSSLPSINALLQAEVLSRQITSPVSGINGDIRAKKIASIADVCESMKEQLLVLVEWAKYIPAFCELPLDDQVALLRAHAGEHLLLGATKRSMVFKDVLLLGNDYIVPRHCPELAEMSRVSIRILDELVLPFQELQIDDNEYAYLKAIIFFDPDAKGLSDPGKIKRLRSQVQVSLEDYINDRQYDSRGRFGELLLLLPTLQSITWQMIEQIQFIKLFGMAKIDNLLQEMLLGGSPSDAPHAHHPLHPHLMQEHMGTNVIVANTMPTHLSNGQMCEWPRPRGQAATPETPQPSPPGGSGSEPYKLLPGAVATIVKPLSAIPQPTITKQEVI

[9] = cytotoxicity in HPDE-C7 cells, cell-based, fluorescence, HTS (AID 430); format: functional; conditions: Homo sapiens
[10] = cytotoxicity in KRAS-transformed pancreatic duct cells, primary screen, cell-based, fluorescence, HTS (AID 431); format: functional; conditions: Homo sapiens;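 further: cell line used: HPDE-C7K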
[11] = growth suppression of beta-catenin-knockout colon cells, dose response, cell-based, HCT116, human colon tumor (AID 1045); format: functional;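 further: HCT116 colon tumor cells with beta catenin knocked out; cells exposed to compound for 60 hours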
[12] = Luminescence Cell-Based Dose Response to Identify Activators of Luciferase Translation or Activity in H4-C Neuroglioblastoma Cells. [Related pubchem assays: 1829 (Project Summary), 1814 (Primary HTS)]; format: functional
[13] = Luminescence Cell-Based Dose Confirmation HTS to Identify Activators of 5'UTR Stem-Loop Driven Alpha-Synuclein mRNA Translation in H4 Neuroglioblastoma Cells. [Related pubchem assays: 1829 (Project Summary), 1814 (Primary HTS)]; format: functional
[14] = Luminescence Cell-Based Dose Response to Identify Activators of 5'UTR Stem-Loop Driven Prion Protein mRNA Translation in H4-C Neuroglioblastoma Cells. [Related pubchem assays: 1829 (Project Summary), 1814 (Primary HTS)]; format: functional
[15] = Luminescence Cell-Based Dose Confirmation to Identify Activators of 5'UTR Stem-Loop Driven Alpha-Synuclein mRNA Translation in H4 Neuroglioblastoma Cells. [Related pubchem assays: 1829 (Project Summary), 1814 (Primary HTS)]; format: functional
[16] = Luminescence Cell-Based Dose Response HTS to Identify Activators of Luciferase Translation or Activity in H4 […] Cells. [Related pubchem assays: 1829 (Project Summary), 1814 (Primary HTS)]; format: functional
H4 = experiment: Luminescence Cell-Based Dose Response HTS to Identify Activators of 5'UTR Stem-Loop Driven Prion Protein mRNA Translation in H4 Neuroglioblastoma Cells. [Related pubchem assays: 1829 (Project Summary), 1814 (Primary HTS)]; format: functional; conditions: Homo sapiens
[17] = target: Heat shock protein HSP 90-alpha (Homo sapiens, UniProt P07900); experiment: Luminescence-based dose response biochemical high throughput screening assay for inhibitors of the Heat Shock Protein 90 (HSP90). [Related pubchem assays: 1831 (Summary AID.), 1846 (Confirmation screen.), 1789 (Primary screen.)]
[18] = target: Voltage-dependent T-type calcium channel subunit alpha-1H (Homo sapiens, UniProt O95180); format: functional;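 further: channel activity triggered by adding a high calcium stimulation buffer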
[19] = target: Protein-tyrosine kinase 2-beta (Homo sapiens, UniProt Q14289);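 further: potency of inhibitors of PYK2 kinase phosphorylation of poly-GT substrate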
Bcl-2-like protein 1 = Bcl-2-like protein 1 (Homo sapiens, UniProt Q07817); experiment: BCL-XL inhibitors, dose response, selectivity assay for MCL1 inhibitor project, biochemical, fluorescence polarization, 1536-well (AID 2218)
[20] = target: Induced myeloid leukemia cell differentiation protein Mcl-1 (Homo sapiens, UniProt Q07820); experiment: MCL1-BIM BH3 interaction inhibitors, dose response, biochemical, fluorescence polarization, BIM-BH3 peptide, 1536-well (AID 2217)
[21] = target: T4, Small ubiquitin-related modifier 1 (Homo sapiens, UniProt P63165); experiment: inhibitors of SUMO1 peptide binding, dose response, biochemical, fluorescence polarization, uHTS hits (AID 624382); format: functional; conditions: read-out: IC50_Mean
[22] = target: Dual specificity protein phosphatase 3 (Homo sapiens, UniProt P51452); experiment: VHR phosphatase inhibition, dose response, selectivity assay for STEP inhibitor project, biochemical (AID 602374); format: functional; conditions: read-out: IC50_Mean
[23] = target: Tyrosine-protein phosphatase non-receptor type 11 (Homo sapiens, UniProt Q06124); experiment: SHP2 phosphatase inhibition, dose response, selectivity assay for STEP inhibitor project, biochemical (AID 602367); format: functional; conditions: read-out: IC50_Mean
[24] = target: T4, Small ubiquitin-related modifier 1; experiment: inhibitors of SUMO1 partner interactions, dose response, biochemical, FRET (AID 624383); format: functional; conditions: read-out: IC50_Mean
[25] = target: Tyrosine-protein phosphatase non-receptor type 5 (Homo sapiens, UniProt P54829); experiment: STEP phosphatase inhibitors, confirmation, biochemical, fluorescence intensity, uHTS hits (AID 602372); format: functional; conditions: read-out: IC50_Mean
[26] = RKO cell viability reduction, dose response, CellTiter-Glo luminescence (AID 1117322); format: functional
[27] = HeLa 2N DNA content increase, dose response, cell-based, IC50 (AID 1117349); format: functional
[28] = HCT116 cell viability decrease, GSK3B pretreatment – CellTiter-Glo, IC50, dose response (AID 1117339); format: functional; conditions: HCT-116
[29] = Concentration-dependent survival of SW480 colon cancer line, luminescence detection with CellTiter-Glo, half-maximal inhibitory concentration (AID 1117338); format: functional
[30] = cytotoxicity toward HCT116 cells – cell-based, CellTiter-Glo luminescence, IC50, dose response (AID 1117332); format: functional; conditions: HCT-116
[31] = HeLa 4N DNA content increase, dose response, cell-based, IC50 (AID 1117351); format: functional
[32] = cytotoxicity toward HT-29 cells – cell-based, CellTiter-Glo luminescence, IC50, dose response (AID 1117330); format: functional
[33] = CellTiter-Glo luminescent dose response of DLD-1 viability loss (AID 1117352); format: functional
[34] = Glucagon-like peptide 1 release potency, NCI-H716 cell line, dose-response, half-maximal inhibitory concentration (AID 1117344); format: functional, cell-based
[35] = cytotoxicity toward Colo320 cells – cell-based, CellTiter-Glo luminescence, IC50, dose response (AID 1117334); format: functional; conditions: COLO 320
[36] = SNU-C1 cell viability reduction, dose response, CellTiter-Glo luminescence (AID 1117323); format: functional, cell-based
[37] = half-maximal inhibitory concentration for glucagon-like peptide-1 release, STC-1 cell line, dose-response (AID 1117345); format: functional, cell-based
Vero [38] = experiment: cells; format: functional; conditions: Chlorocebus sabaeus
Vero [39] = experiment: host cell cytotoxicity of antiviral hits, dose response, cytotoxicity control for West Nile virus antiviral project, secondary assay (AID 1650); format: functional; conditions: Chlorocebus sabaeus
[40] = THP-1 cell cytotoxicity, dose response, cytotoxicity control for Vif-APOBEC3G degradation inhibitor project, THP-1 cells (AID 1117359); format: functional; conditions: Human immunodeficiency virus 1, THP-1
[41] = HEp-2 cell cytotoxicity, dose response, cytotoxicity control for RSV inhibitor project, HTS (AID 2410); format: functional; conditions: human respiratory syncytial virus

T4 sequence (P63165 whole entry): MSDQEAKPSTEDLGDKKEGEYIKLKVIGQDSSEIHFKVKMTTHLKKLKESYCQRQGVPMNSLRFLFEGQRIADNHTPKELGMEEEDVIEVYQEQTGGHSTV
Chain of Voltage-dependent T-type calcium channel subunit alpha-1H (O95180 whole entry): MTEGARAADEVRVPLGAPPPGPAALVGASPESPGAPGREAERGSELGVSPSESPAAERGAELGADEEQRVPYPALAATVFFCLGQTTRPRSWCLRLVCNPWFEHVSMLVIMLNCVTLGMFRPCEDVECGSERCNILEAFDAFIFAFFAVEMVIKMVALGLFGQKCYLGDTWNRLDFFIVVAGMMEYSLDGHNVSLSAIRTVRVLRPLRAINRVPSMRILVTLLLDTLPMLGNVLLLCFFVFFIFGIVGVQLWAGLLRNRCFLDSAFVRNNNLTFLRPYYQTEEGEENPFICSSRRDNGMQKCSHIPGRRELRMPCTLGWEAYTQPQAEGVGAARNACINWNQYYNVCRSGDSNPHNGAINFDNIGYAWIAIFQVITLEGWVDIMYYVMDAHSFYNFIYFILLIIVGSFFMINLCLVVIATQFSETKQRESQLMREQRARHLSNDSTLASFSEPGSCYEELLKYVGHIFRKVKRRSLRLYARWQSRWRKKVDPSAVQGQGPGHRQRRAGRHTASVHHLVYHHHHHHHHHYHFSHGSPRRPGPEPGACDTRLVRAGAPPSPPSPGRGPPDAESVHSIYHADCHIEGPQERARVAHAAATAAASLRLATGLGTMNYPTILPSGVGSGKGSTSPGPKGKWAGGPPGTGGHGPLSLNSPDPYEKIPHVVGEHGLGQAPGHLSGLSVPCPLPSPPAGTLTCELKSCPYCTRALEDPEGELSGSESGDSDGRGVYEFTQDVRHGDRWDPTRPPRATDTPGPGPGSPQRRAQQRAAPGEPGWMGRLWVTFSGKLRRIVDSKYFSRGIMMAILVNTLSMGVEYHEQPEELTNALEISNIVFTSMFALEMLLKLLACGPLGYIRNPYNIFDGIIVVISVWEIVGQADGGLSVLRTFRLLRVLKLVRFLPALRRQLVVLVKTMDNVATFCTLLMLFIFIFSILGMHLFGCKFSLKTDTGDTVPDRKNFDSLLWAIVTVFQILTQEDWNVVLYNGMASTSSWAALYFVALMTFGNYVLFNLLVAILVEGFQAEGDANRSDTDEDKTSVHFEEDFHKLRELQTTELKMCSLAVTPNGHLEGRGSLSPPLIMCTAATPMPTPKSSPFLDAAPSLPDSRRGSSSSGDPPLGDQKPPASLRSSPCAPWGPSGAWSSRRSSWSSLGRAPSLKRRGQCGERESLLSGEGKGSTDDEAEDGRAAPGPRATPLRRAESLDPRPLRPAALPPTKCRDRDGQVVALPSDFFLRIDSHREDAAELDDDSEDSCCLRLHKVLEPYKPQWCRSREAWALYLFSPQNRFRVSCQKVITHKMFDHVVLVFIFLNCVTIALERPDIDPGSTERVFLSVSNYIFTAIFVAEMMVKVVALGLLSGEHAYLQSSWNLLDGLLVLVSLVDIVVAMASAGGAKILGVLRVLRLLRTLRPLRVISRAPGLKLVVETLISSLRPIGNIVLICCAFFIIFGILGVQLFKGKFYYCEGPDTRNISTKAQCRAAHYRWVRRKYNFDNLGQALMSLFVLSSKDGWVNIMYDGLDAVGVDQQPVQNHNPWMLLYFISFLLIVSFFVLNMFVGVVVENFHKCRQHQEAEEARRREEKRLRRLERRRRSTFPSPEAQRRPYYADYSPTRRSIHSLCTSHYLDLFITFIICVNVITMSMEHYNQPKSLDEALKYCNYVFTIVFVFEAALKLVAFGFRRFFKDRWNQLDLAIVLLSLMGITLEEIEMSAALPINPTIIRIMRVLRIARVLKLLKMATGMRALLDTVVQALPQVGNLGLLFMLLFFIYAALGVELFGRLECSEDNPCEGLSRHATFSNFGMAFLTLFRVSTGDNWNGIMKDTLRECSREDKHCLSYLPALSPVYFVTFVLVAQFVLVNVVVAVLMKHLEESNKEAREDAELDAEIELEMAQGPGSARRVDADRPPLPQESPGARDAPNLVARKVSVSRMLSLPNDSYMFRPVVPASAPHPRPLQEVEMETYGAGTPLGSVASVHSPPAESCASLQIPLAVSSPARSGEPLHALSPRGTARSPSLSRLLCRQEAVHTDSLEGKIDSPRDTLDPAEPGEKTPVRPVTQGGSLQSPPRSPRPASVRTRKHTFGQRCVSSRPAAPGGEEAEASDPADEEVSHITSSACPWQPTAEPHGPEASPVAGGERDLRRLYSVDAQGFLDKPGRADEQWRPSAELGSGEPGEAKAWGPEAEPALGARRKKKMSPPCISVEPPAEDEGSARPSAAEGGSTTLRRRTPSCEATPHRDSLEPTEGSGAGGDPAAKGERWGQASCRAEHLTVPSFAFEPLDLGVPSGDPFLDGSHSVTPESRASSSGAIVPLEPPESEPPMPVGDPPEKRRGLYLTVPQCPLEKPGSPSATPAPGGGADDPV
Chain of Protein-tyrosine kinase 2-beta (Q14289 whole entry): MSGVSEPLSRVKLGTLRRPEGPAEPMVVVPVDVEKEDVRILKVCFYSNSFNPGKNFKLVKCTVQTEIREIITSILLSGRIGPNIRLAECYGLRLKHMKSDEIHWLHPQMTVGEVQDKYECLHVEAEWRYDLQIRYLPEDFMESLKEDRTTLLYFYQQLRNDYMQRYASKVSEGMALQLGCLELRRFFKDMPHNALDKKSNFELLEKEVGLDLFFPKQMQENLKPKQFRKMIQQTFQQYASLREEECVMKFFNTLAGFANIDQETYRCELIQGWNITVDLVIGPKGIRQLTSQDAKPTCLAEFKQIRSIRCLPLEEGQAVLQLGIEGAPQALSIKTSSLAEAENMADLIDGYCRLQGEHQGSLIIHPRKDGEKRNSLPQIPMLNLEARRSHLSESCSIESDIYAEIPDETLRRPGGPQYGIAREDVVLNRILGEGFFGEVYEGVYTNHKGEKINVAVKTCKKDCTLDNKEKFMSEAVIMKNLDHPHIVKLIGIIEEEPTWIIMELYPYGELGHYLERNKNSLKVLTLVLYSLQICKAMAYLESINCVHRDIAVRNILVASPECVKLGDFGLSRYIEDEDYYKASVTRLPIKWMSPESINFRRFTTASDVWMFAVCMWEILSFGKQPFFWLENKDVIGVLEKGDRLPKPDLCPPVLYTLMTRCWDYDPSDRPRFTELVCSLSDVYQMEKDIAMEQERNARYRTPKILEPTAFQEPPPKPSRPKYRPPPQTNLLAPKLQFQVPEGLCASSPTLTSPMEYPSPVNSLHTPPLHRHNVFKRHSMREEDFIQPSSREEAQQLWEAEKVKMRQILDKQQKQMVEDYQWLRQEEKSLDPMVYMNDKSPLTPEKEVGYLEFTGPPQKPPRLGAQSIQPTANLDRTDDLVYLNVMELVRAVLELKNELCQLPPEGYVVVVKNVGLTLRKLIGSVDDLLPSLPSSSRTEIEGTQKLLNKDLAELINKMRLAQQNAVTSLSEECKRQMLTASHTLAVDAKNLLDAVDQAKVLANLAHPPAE
Chain of Tyrosine-protein phosphatase non-receptor type 5 (P54829 whole entry): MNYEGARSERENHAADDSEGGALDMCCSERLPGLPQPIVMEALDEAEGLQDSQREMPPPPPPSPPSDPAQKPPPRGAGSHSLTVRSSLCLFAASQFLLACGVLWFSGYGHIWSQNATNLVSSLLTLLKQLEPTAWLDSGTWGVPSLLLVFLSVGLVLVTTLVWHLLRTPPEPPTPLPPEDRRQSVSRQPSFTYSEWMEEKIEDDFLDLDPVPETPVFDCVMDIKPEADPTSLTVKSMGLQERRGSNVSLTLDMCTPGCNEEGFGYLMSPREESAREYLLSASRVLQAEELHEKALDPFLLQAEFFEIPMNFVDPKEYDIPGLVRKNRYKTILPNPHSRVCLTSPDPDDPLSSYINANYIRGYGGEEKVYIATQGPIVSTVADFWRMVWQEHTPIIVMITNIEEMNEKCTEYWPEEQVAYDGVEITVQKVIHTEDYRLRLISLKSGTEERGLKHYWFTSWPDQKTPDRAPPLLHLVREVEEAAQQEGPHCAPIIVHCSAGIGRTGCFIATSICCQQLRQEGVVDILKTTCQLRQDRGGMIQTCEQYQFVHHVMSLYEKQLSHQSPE
Chain of Dual specificity protein phosphatase 3 (P51452 whole entry): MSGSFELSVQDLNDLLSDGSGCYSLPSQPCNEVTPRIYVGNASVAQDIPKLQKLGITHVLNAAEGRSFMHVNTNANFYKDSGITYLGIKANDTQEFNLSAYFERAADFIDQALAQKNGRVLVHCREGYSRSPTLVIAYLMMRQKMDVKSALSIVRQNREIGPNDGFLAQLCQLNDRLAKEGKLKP
Chain of Genome polyprotein (Q2Q167 whole entry): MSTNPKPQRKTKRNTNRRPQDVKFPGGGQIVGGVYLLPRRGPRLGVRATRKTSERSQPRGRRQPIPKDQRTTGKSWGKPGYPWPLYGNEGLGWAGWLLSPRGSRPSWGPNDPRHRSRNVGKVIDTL
Chain of Induced myeloid leukemia cell differentiation protein Mcl-1 (Q07820 whole entry): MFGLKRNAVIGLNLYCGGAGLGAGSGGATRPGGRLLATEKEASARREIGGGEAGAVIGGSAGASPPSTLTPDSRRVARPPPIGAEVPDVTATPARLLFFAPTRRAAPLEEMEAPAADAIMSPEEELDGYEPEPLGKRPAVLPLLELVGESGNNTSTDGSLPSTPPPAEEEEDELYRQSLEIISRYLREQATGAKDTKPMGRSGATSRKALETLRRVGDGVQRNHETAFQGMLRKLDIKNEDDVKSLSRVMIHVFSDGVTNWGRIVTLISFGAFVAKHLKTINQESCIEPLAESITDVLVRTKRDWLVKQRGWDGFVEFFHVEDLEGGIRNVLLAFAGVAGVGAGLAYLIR
Chain of Bcl-2-like protein 1 (Q07817 whole entry): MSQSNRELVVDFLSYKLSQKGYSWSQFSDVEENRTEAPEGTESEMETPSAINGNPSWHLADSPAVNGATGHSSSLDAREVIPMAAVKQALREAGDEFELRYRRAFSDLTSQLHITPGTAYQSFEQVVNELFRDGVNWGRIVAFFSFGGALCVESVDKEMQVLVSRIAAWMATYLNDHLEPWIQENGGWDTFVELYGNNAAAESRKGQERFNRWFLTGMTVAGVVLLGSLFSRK

Structure (SMILES): CCc1cccc(CC)c1NC(=O)C(NS(=O)(=O)c1cccs1)c1ccccc1 (centres undefined)
- IC50 [1]: > 35 µM (not active)
- IC50 [2]: > 35 µM (not active)

Structure (SMILES): COc1ccc2ccccc2c1C(=O)/C=C\c1ccoc1
- EC50 [3]: > 100 µM (active)

Structure (SMILES): Cc1cc(C(=O)OCC(=O)c2ccc(Cl)c([N+](=O)[O-])c2)c2cccc(C)c2n1
- IC50 (Genome polyprotein): > 49.8 µM (not active)

Structure (SMILES): CCOc1ccc(NC(=O)CN(C)S(=O)(=O)c2c[nH]cn2)cc1
- EC50 [4]: 25 µM (not active)

Structure (SMILES): CC1=CC(C)(C)Nc2ccc(OC(=O)c3cccnc3)cc21
- EC50 [5]: 7.33 µM (active)
- CC50 [6]: 34.4 µM (active)
- IC50 [7]: 62.5 µM (inactive)
- IC50 [8]: 3.22 µM (active)
- EC50 [9]: 8.6 µM (active)
- EC50 [10]: 8.23 µM (active)
- EC50 [11]: 5.85 µM (active)

Structure (SMILES): Cc1csc(C(C#N)C(=O)c2cc3ccccc3o2)n1 (centres undefined)
- EC50 [12]: 9.73 µM (active)
- EC50 [13]: < 0.1 µM (active)
- EC50 [14]: 1.46 µM (active)
- EC50 [15]: 0.926 µM (active)
- EC50 [16]: 0.387 µM (active)
- EC50 (H4): 3.63 µM (active)

Structure (SMILES): CCOC(=O)c1csc(NC(=O)c2ccc(OCC)cc2)n1
- IC50 [17]: 0.88 µM (active)

Structure (SMILES): Cc1oc(-c2ccccc2)cc1C(=O)Nc1cccc2ccccc12
- EC50 [18]: 18 µM (active)
- IC50 [19]: > 69.5 µM (not active)

Structure (SMILES): O=C(N/N=C/c1ccncc1)c1cccc(S(=O)(=O)Nc2ccc(Cl)cc2)c1
- IC50 (Bcl-2-like protein 1): > 109 µM (not active)
- IC50 [20]: 11.3 µM (not active)
- IC50 [21]: > 66.6 µM (inactive)
- IC50 [22]: 2.87 µM (active)
- IC50 [23]: 2.6 µM (active)
- IC50 [24]: 10.3 µM (active)
- IC50 [25]: 14.7 µM (active)

Structure (SMILES): Oc1ccc([C@H]2CNCc3c2ccc(O)c3O)cc1O
- IC50 [26]: 0.0332 µM (active)
- IC50 [27]: > 10 µM (inactive)
- IC50 [28]: 0.188 µM (active)
- IC50 [29]: > 20 µM (inactive)
- IC50 [30]: > 20 µM (inactive)
- IC50 [31]: > 10 µM (inactive)
- IC50 [32]: > 20 µM (inactive)
- IC50 [33]: > 20 µM (inactive)
- IC50 [34]: 5.95 µM (inactive)
- IC50 [35]: 0.466 µM (active)
- IC50 [36]: > 20 µM (inactive)
- IC50 [37]: > 20 µM (inactive)

Structure (SMILES): COc1ccc(C(=O)N/N=C/C23CC[C@@H](O)CC2(O)CC[C@@H]2[C@@H]3CCC3(C)C(C4=CC(=O)OC4)CCC23O)cc1 (some centres undefined)
- CC50 (Vero [38]): 22.1 µM (active)
- CC50 (Vero [39]): 43.5 µM (active)
- CC50 [40]: 10.4 µM (active)
- CC50 [41]: 12.5 µM (active)
